Reference: US20120149708A1, “MODULATORS OF VIRAL TRANSCRIPTION, AND METHODS AND COMPOSITIONS THEREWITH” (George Mason University, priority 2010, published 2012)

Columns and labels:
Type in all cases: cell-based
[1] = test system: integrated HIV-1-Luc; test: Luciferase assay in TSA treated TZM-bl cells; conditions: TSA and CR8#13 versus TSA alone
Experimental: Luciferase activity increased with TSA treatment and then decreased post-CR8#13 treatment.
To observe the effect of drug on heterochrmatin formation, the present inventor used a ChIP assay. Briefly, TZM-bl cells were treated with TSA (FIGS. 16 and 17), and then treated with CR8#13.

[2] = test system: CEM cells (uninfected); test: Cell viability by trypan blue exclusion, 48 hours
Experimental: (§1) TZM-bl cell lines were grown in Dulbecco's modified Eagle's medium supplemented with fetal bovine serum (FBS) (10%, v/v), 2 mM L-glutamine, and antibiotics (penicillin 100 U/ml, streptomycin […]) (cDMEM). HCT116 WT and HCT116 Dicer−/−cell lines were grown in McCoy's medium supplemented with FBS (10%, v/v), 2mM L-glutamine, and antibiotics (penicillin 100 U/ml, streptomycin […]). CEM, ACH2, Jurkat and U937 cells were grown in RPMI 1640 supplemented with FBS, L-glutamine, and antibiotics (penicillin 100 U/ml, streptomycin […]). All cell lines were maintained at 37° C. in 5% (v/v) CO2.
(§2) ACH2 cells are infected with HIV-1; TZM-bl cells contain a stably-integrated HIV-1 LTR-Luciferase reporter; CEM, Jurkat, and U937 cells are uninfected. Transfections were carried out using Attractene (Qiagen) lipid reagent. Cells were cultured to confluence and pelleted at 4° C. for 15 min at 3,000 rpm. The cell pellets were washed twice with 25 ml of phosphate-buffered saline (PBS) with Ca2+ and Mg2+ (Quality Biological) and centrifuged once more. Cell pellets were resuspended in lysis buffer (50 mM Tris-HCl, pH 7.5, 120 mM NaCl, 5 mM EDTA, 0.5%, v/v, NP-40, 50 mM NaF, 0.2 mM Na3VO4, 1 mM DTT, one complete protease cocktail tablet/50 ml (Roche) and incubated on ice for 20 min, with gentle vortexing every 5 min. Cell lysates were transferred to eppendorf tubes and were centrifuged at 10,000 rpm for 10 min. Supernatants were transferred to a fresh tube where protein concentrations were determined using Bio-Rad protein assay (Bio-Rad, Hercules, Calif.).
(§3) In brief, the inhibition studies were carried out as follows. HIV-1 infected cells ACH2, J1.1, OM10.1, U1 and uninfected CEM, Jurkat T-cells, and U937 were cultured in media. The appropriate inhibitor was added at a concentration of 10 μM. Cells were treated for 48 hours and cell viability was determined using trypan blue exclusion method. Results of such a screen for 19 inhibitors is shown in Table 1 where percent dead cells are indicated each drug tested.
(§4) Again HIV-1 infected and uninfected cells were treated with eighteen Formula I compounds at a drug concentration of 50 nm. Forty-eight hours after treatment, cytotoxicity was determined by trypan blue dye exclusion. Percent inhibition was calculated after obtaining the cell density for each well of the tissue culture plate at the end of 48 hrs.

[3] = test system: U937 cells (uninfected); test: Cell viability by trypan blue exclusion, 48 hours
Experimental: as §1, §2, §3, §4

[4] = test system: CIITA, IL-8, CAD, MCL-1, Cyclin D1, and PBX-1
Experimental: 293T cells were treated with three different concentrations of CR8#13 (20 nm, 50 nm, and 200 nm). Cells were processed 48 hrs-post treatment for RT-PCR. Effector cdk9 genes such as CIITA, IL-8, CAD, MCL-1, Cyclin D1, and PBX-1 were used in the RT-PCR.
For mRNA analysis of cdk9 related genes following drug treatments, total RNA was isolated from cells using Trizol (Invitrogen) according to the manufacturer's protocol. A total of 1 μg of RNA from the RNA fraction was treated with 0.25mg/ml DNase I for 60 min, followed by heat inactivation at 65° C. for 15 min. A total of 1 μg of total RNA was used to generate cDNA with the iScript cDNA Synthesis kit (Bio-Rad) using oligo-dT reverse primers.
A determination whether inhibition cdk9 by compounds of the present invention altered the responsiveness of cdk9 dependent cellular genes, was made by the present inventor by testing the effect of CR8#13 (BJFP1154), of viral transcriptional activity utilizing a known set of cellular and viral genes.

[5] = test system: OM10.1 cells (HIV-1 infected); test: Cell viability by trypan blue exclusion, 48 hours
Experimental: as §3, §4

[6] = test system: J1.1 cells (HIV-1 infected); test: Cell viability by trypan blue exclusion, 48 hours
Experimental: as §3, §4

[7] = test system: U1 cells (HIV-1 infected); test: Cell viability by trypan blue exclusion, 48 hours
Experimental: as §3, §4

[8] = test system: Jurkat T-cells (uninfected); test: Cell viability by trypan blue exclusion, 48 hours

CC(C)c1cnn2c(NCc3ccc(-c4ccccn4)cc3)nc(NC[C@H](O)CO)nc12.O=C(O)/C=C/C(=O)O [BJFP1154]
Luciferase activity [1]: decrease Luciferase activity
Inhibition Percentage CEM ([2]; 50 nM, 48 hrs): − (1-5%)
Inhibition Percentage U937 ([3]; 50 nM, 48 hrs): − (1-5%)
transcription of cdk9 responsive genes [4]: did not inhibit transcription of genes that are cdk9 responsive
Inhibition Percentage OM10.1 ([5]; 50 nM, 48 hrs, HIV-1 infected): − (1-5%)
Inhibition Percentage J1.1 ([6]; 50 nM, 48 hrs, HIV-1 infected): − (1-5%)
Inhibition Percentage U1 ([7]; 50 nM, 48 hrs, HIV-1 infected): − (1-5%)
Inhibition Percentage Jurkat ([8]; 50 nM, 48 hrs): − (1-5%)

CC[C@@H](CO)Nc1nc(NCc2ccc(-c3ccccn3)cc2)c2ncn(C(C)C)c2n1 [CR8]
inhibition at 10 µM ([2]; Homo sapiens, CCRF-CEM, 48 h, 10 μM, 48 hours, read-out: % Inhibition (percent dead cells) CEM): 25%
inhibition at 10 µM ([3]; Homo sapiens, U-937, 10 μM, 48 hours, read-out: % Inhibition (percent dead cells) U937): 50%
inhibition at 10 µM ([5]; Human immunodeficiency virus 1, 48 h, read-out: % Inhibition (percent dead cells) OM10.1): 75%
inhibition at 10 µM ([6]; Human immunodeficiency virus 1, 48 h, read-out: % Inhibition (percent dead cells) J1.1): 75%
inhibition at 10 µM ([7]; Human immunodeficiency virus 1, 48 h, read-out: % Inhibition (percent dead cells) U1): 90%
inhibition at 10 µM ([8]; Homo sapiens, Jurkat, 10 μM, 48 hours, read-out: % Inhibition (percent dead cells) Jurkat): 50%
